Assays:
OCI-LY10 cells = assay: OCI-LY-10 CTG cell viability assay (EC50); assay type: cell-based; conditions: Homo sapiens, 96 h, CellTiter-Glo cell viability, 4 days incubation, top concentration 10 μM, read-out: OCI-LY10 IRAK4 EC50
Description: A CTG cell viability assay using OCI-LY-10 cells was run to determine compound-mediated cell viability (EC50).
Compound-mediated viability effect on OCI-LY10 was quantitatively determined using the CellTiter-Glo® Luminescent Cell Viability Assay kit from Promega (Catalog number G7570) following manufacturer's recommended procedures. […] Compounds were then added to the assay plate with final top concentration of 10 μM and 1:3 dilution series with total of 9 doses. The final DMSO concentration was normalized to 0.2%. The assay plates were incubated at 37° C. for 4 days under 5% CO2. Then the assay plate was equilibrated at room temperature for 10 minutes. […] The data was then analyzed by software Prism 7.0 from GraphPad and the dose response curves were fit using a three-parameter logistic equation to calculate EC50.

IRAK4 = molecular target: T1, IRAK4 (Homo sapiens, UniProt Q9NWZ3); assay: OCI-LY-10 MSD assay for IRAK4 DC50; assay type: cell-based; parameters: endogenous in cells; host or cells: OCI-LY10; conditions: OCI-LY10 cells, 4 hr incubation, concentration required to degrade 50% of protein
T1 sequence (Q9NWZ3 1-460): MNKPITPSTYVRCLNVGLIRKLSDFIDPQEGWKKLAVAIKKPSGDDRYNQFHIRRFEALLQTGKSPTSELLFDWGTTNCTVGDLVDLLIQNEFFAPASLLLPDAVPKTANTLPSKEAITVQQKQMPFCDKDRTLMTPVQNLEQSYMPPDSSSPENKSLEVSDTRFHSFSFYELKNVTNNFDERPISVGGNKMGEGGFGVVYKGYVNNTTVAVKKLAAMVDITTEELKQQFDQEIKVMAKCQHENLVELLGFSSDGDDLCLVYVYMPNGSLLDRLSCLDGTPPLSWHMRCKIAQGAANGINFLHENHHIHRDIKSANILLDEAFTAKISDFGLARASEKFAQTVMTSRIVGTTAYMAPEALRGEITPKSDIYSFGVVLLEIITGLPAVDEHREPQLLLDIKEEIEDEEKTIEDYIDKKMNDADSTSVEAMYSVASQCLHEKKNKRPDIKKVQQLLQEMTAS
Summary of the method: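 OCI-Ly10 cells were exposed to compound for 4 hr across a 3-fold, 8-point dilution series. Lysates were made in RIPA buffer, and IRAK4 remaining was measured by MSD sandwich immunoassay with anti-IRAK4 capture and detection antibodies. DC50 was taken from a four-parameter logistic fit.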

| Structure (SMILES) | EC50 (OCI-LY10 cells) [nM] | DC50 (IRAK4) [nM] |
| --- | --- | --- |
| O=C1CCC(N2C[C@H](c3ccc(C#CCCOCCCNCc4ccc(-n5cc(NC(=O)c6coc(-c7ccnc(NCC8CC8)c7)n6)c(C(F)F)n5)cc4)cc3)OC2=O)C(=O)N1 (stereo partly shown) [I-580] | < 50 | 50 to 100 |
| CN[C@@H](C)C(=O)N[C@H](C(=O)N1Cc2cc(OCCOCCOCCOCCNC(=O)c3ccc(-n4cc(NC(=O)c5coc(-c6ccnc(NCC7CC7)c6)n5)c(C(F)F)n4)cc3)ccc2C[C@H]1C(=O)N[C@@H]1CCCc2ccccc21)C(C)(C)C [I-521] | > 1000 | > 1000 |
| CN(CCCOCCCc1cccc2c1oc(=O)n2C1CCC(=O)NC1=O)C(=O)c1ccc(-n2cc(NC(=O)c3coc(-c4ccnc(NCC5CC5)c4)n3)c(C(F)F)n2)cc1 (stereo not shown) [I-476] | 100 to 500 | < 50 |
| CN(CC(=O)N(C)CC(=O)N(C)CC(=O)N(C)CCCc1cccc2c1n(C)c(=O)n2C1CCC(=O)NC1=O)Cc1nn(C)cc1NC(=O)c1coc(-c2ccnc(NCC(F)(F)F)c2)n1 (stereo not shown) [I-525] | > 1000 | > 1000 |
| Cn1c(=O)n(C2CCC(=O)NC2=O)c2ccc(N3CCN(CCOCCNCc4ccc(-n5cc(NC(=O)c6coc(-c7ccnc(NCC8CC8)c7)n6)c(C(F)F)n5)cc4)CC3)cc21 (stereo not shown) [I-685] | < 50 | < 50 |
| Cn1ncc2nc(Nc3cnn(CCOCCOCCNc4cccc5c4C(=O)N(C4CCC(=O)NC4=O)C5=O)c3)nc(NC3CCC(N4CCOCC4)CC3)c21 (stereo not shown) [I-692] | > 1000 | > 1000 |
| Cn1c(=O)n(C2CCC(=O)NC2=O)c2cccc(CCCCOCCCCNCc3ccc(-n4cc(NC(=O)c5coc(-c6ccnc(NCC7CC7)c6)n5)c(C(F)F)n4)cc3)c21 (stereo not shown) [I-523] | < 50 | 50 to 100 |
| Cn1c(=O)n(C2CCC(=O)NC2=O)c2cccc(CCCNCC3COC4C(CNCc5ccc(-n6cc(NC(=O)c7coc(-c8ccnc(NCC(F)(F)F)c8)n7)c(C(F)F)n6)cc5)COC34)c21 (stereo not shown) [I-536] | < 50 | < 50 |
| CN(C[C@H]1CN(CCCc2cccc3c2n(C)c(=O)n3C2CCC(=O)NC2=O)CCO1)C(=O)c1ccc(-n2cc(NC(=O)c3coc(-c4ccnc(NCC5CC5)c4)n3)c(C(F)F)n2)cc1 (stereo partly shown) [I-513] | < 50 | < 50 |
| CN[C@@H](C)C(=O)N[C@H](C(=O)N1CCC[C@H]1c1nc(C(=O)c2cccc(OCCOCCOCCOCCOCCNCc3ccc(-n4cc(NC(=O)c5coc(-c6ccnc(NCC7CC7)c6)n5)c(C(F)F)n4)cc3)c2)cs1)C1CCCCC1 [I-555] | > 1000 | 500 to 1000 |
| Cn1c(=O)n(C2CCC(=O)NC2=O)c2cccc(CCCOCCNCc3ccc(-n4cc(NC(=O)c5coc(-c6ccnc(NCC7CC7)c6)n5)c(C(F)F)n4)cc3)c21 (stereo not shown) [I-530] | < 50 | < 50 |
| Cn1c(=O)n(C2CCC(=O)NC2=O)c2ccc(N3CCN(CCOCCNCc4ccc(-n5cc(NC(=O)c6coc(-c7ccnc(NCC(F)(F)F)c7)n6)c(C(N)=O)n5)cc4)CC3)cc21 (stereo not shown) [I-564] | > 1000 | 100 to 500 |
| O=C1CCC(N2Cc3cc(CNC(=O)NCCOCCOCCNCc4ccc(-n5cc(NC(=O)c6coc(-c7ccnc(NCC8CC8)c7)n6)c(C(F)F)n5)cc4)ccc3C2=O)C(=O)N1 (stereo not shown) [I-529] | 50 to 100 | 50 to 100 |
| O=C1CCC(n2c(=O)oc3c(CCCOCCOCCNCc4ccc(-n5cc(NC(=O)c6coc(-c7ccnc(NCC8CC8)c7)n6)c(C(F)F)n5)cc4)cccc32)C(=O)N1 (stereo not shown) [I-551] | < 50 | < 50 |
| Cn1cc(NC(=O)c2coc(-c3ccnc(NCC(F)(F)F)c3)n2)c(C(=O)NCCOCCOCCOCCCc2ccc3c(c2)n(C)c(=O)n3C2CCC(=O)NC2=O)n1 (stereo not shown) [I-463] | > 1000 | > 1000 |
| Cn1cc(NC(=O)c2coc(-c3ccnc(NCC(F)(F)F)c3)n2)c(C(=O)NCCOCCOCCOCCOCCOCCNc2cccc3c2C(=O)N(C2CCC(=O)NC2=O)C3=O)n1 (stereo not shown) [I-449] | > 1000 | > 1000 |
| CN(CC1CCN(CCC#Cc2ccc3c(c2)n(C)c(=O)n3C2CCC(=O)NC2=O)CC1)C(=O)c1ccc(-n2cc(NC(=O)c3coc(-c4ccnc(NCC5CC5)c4)n3)c(C(F)F)n2)cc1 (stereo not shown) [I-504] | < 50 | < 50 |
| O=C1CCC(N2C[C@H](c3ccc(C#CCN4CCO[C@@H](CNC(=O)c5ccc(-n6cc(NC(=O)c7coc(-c8ccnc(NCC9CC9)c8)n7)c(C(F)F)n6)cc5)C4)cc3)OC2=O)C(=O)N1 (stereo partly shown) [I-509] | < 50 | < 50 |
| O=C1CCC(N2C[C@H](c3cccc(C#CCN4CCO[C@@H](CNC(=O)c5ccc(-n6cc(NC(=O)c7coc(-c8ccnc(NCC9CC9)c8)n7)c(C(F)F)n6)cc5)C4)c3)OC2=O)C(=O)N1 (stereo partly shown) [I-508] | 50 to 100 | < 50 |
| O=C1CCC(n2c(=O)oc3c(CCCOCCCNCc4ccc(-n5cc(NC(=O)c6coc(-c7ccnc(NCC8CC8)c7)n6)c(C(F)F)n5)cc4)cccc32)C(=O)N1 (stereo not shown) [I-548] | < 50 | < 50 |
| CN[C@@H](C)C(=O)N[C@H](C(=O)N1Cc2cc(OCCOCCOCCOCCOCCOCCNC(=O)c3ccc(-n4cc(NC(=O)c5coc(-c6ccnc(NCC7CC7)c6)n5)c(C(F)F)n4)cc3)ccc2C[C@H]1C(=O)N[C@@H]1CCCc2ccccc21)C(C)(C)C [I-520, 2-[2-(Cyclopropylmethylamino)-4-pyridyl]-N-[3-(difluoromethyl)-1-[4-[2-[2-[2-[2-[2-[2-[[(3S)-2-[(2S)-3,3-dimethyl-2-[[(2S)-2-(methylamino)propanoyl]amino]butanoyl]-3-[[(1R)-tetralin-1-yl]carbamoyl]-3,4-dihydro-1H-isoquinolin-7-yl]oxy]ethoxy]ethoxy]ethoxy]ethoxy]ethoxy]ethylcarbamoyl]phenyl]-pyrazol-4-yl]oxazole-4-carboxamide] | > 1000 | 500 to 1000 |
| Cn1c(=O)n(C2CCC(=O)NC2=O)c2cccc(CCCN3CCO[C@@H](CNCc4ccc(-n5cc(NC(=O)c6coc(-c7ccnc(NCC8CC8)c7)n6)c(C(F)F)n5)cc4)C3)c21 (stereo partly shown) [I-588] | < 50 | < 50 |
| CN(C[C@H]1CN(CCCc2ccc3c(c2)n(C)c(=O)n3C2CCC(=O)NC2=O)CCO1)C(=O)c1ccc(-n2cc(NC(=O)c3coc(-c4ccnc(NCC5CC5)c4)n3)c(C(F)F)n2)cc1 (stereo partly shown) [I-490] | < 50 | < 50 |
| O=C1CCC(n2c(=O)oc3c(CCCN4CCO[C@@H](CNCc5ccc(-n6cc(NC(=O)c7coc(-c8ccnc(NCC9CC9)c8)n7)c(C(F)F)n6)cc5)C4)cccc32)C(=O)N1 (stereo partly shown) [I-589] | < 50 | < 50 |
| CN(CCOCCOCCOCCNc1cccc2c1C(=O)N(C1CCC(=O)NC1=O)C2=O)C(=O)c1nn(C)cc1NC(=O)c1coc(-c2ccnc(NCC(F)(F)F)c2)n1 (stereo not shown) [I-456] | > 1000 | > 1000 |
| CN[C@@H](C)C(=O)N[C@H](C(=O)N1Cc2cc(OCCOCCOCCOCCOCCNC(=O)c3ccc(-n4cc(NC(=O)c5coc(-c6ccnc(NCC7CC7)c6)n5)c(C(F)F)n4)cc3)ccc2C[C@H]1C(=O)N[C@@H]1CCCc2ccccc21)C(C)(C)C [I-519, 2-[2-(Cyclopropylmethylamino)-4-pyridyl]-N-[3-(difluoromethyl)-1-[4-[2-[2-[2-[2-[2-[[(3S)-2-[(2S)-3,3-dimethyl-2-[[(2S)-2-(methylamino)propanoyl]amino]butanoyl]-3-[[(1R)-tetralin-1-yl]carbamoyl]-3,4-dihydro-1H-isoquinolin-7-yl]oxy]ethoxy]ethoxy]ethoxy]ethoxy]ethylcarbamoyl]phenyl]pyrazol-4-yl]oxazole-4-carboxamide] | 500 to 1000 | 500 to 1000 |
